The experiment deals with T1, carboxylesterase 1 (CES1) (Homo sapiens, UniProt P23141).
T1 sequence (P23141 18-567): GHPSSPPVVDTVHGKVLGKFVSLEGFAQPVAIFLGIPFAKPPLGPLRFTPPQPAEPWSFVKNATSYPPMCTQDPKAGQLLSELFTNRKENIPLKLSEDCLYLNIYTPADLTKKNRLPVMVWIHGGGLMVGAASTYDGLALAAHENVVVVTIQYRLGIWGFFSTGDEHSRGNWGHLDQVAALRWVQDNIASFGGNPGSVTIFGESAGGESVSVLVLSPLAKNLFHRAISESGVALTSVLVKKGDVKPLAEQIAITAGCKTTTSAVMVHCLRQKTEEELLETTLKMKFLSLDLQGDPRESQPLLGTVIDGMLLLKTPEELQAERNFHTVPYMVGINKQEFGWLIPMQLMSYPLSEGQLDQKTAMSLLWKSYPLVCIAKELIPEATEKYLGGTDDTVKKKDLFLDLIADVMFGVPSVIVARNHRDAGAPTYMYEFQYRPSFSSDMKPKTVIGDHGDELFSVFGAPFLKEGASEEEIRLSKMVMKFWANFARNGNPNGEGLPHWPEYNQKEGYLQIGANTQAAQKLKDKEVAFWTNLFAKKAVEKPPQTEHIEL
The experiment is described as follows: LC-MS/MS of the product of PGD2-G hydrolysis. Format: biochemical.

Structures are written as SMILES.

For the compound `CCCCC[C@H](O)/C=C/[C@H]1C(=O)C[C@H](O)[C@@H]1C/C=C\CCCC(=O)O` [PGD2], the “LC-MS/MS of the product of PGD2-G hydrolysis” value is given as “Our data indicates that PGD2-G/PGD2 is a substrate/product dyad for CES1”.

The values are drawn from paper PMC7675540 (ACS Omega, 2020).
